The values that follow come from patent publication US7071293B1, “Alpha helical peptides with broad spectrum antimicrobial activity that are insensitive to salt” (priority 1999, dated 2006).

Ends that are not written are not given here.

In one experiment the test system is MRSA ATCC 33591. The conditions noted are these: ATCC 33591.
The next experiment relates to N. gonorrhoeae. As to the kind of experiment: Two stage radial diffusion assay (MIC). The format is cell-based. On the set-up: unit not given here. Particulars: done only at 100 mM NaCl; for N. gonorrhoeae F 62 (serum-sensitive): strain F 62 (serum-sensitive); for N. gonorrhoeae FA 19 (serum-resistant): strain FA 19 (serum-resistant).
The test system of a further experiment is E. coli ML-35p. Particulars: Table 15; for E. coli ML-35p MIC, 0 mM NaCl: underlay 0 mM NaCl; for E. coli ML-35p MIC, 175 mM NaCl: underlay 175 mM NaCl.
Another experiment deals with S. aureus 930918-3. The conditions noted are these: 930918-3.
Another experiment deals with B. cepacia ATCC 25416. As to the kind of experiment: Two stage radial diffusion assay (MIC). The format is cell-based. On the set-up: unit not given here. Particulars: underlay 0 mM NaCl.
In another experiment the test system is P. aeruginosa MR 3007. The conditions noted are these: MR 3007.
In the next experiment the test system is L. monocytogenes EGD. As to the kind of experiment: Two stage radial diffusion assay (MIC). The format is cell-based. More on the design: unit not given here. Particulars: underlay 0 mM NaCl.
The next experiment deals with E. coli DH-5α. Particulars: DH-5α.

Consider KIKEKLKKIGQKIQG [Peptide 25], for which the “MRSA ATCC 33591 MIC, 0 mM NaCl” value in the experiment on MRSA ATCC 33591 was more than 250 µg/mL. Moreover, in the experiment on N. gonorrhoeae, the “N. gonorrhoeae F 62 (serum-sensitive)” value was more than 79.1 and the “N. gonorrhoeae FA 19 (serum-resistant)” value was more than 250. For the same substance, the “E. coli ML-35p MIC, 0 mM NaCl” value with E. coli ML-35p was 1.6 µg/mL. Further, the “S. aureus 930918-3 MIC, 0 mM NaCl” value in the experiment on S. aureus 930918-3 was more than 250 µg/mL. Further, the “B. cepacia ATCC 25416 in underlays of low, normal and high salinity, 0 mM NaCl” value (from here on “B. cepacia ATCC 25416 in underlays”) in the experiment with B. cepacia ATCC 25416 is listed as more than 250. Moreover, the “P. aeruginosa MR-3007 MIC, 0 mM NaCl” value in the experiment on P. aeruginosa MR 3007 turned out to be 8.7 µg/mL. The “L. monocytogenes in underlays of low, normal and high salinity, 0 mM NaCl” value (“L. monocytogenes in underlays of low” below) in the experiment on L. monocytogenes EGD was more than 250.
On to KNLRRIIRKIIHIIKKYG [Peptide 8], for which, in the experiment with MRSA ATCC 33591, the “MRSA ATCC 33591 MIC, 0 mM NaCl” value was determined as 0.77 ± 0.04 µg/mL and the “MRSA ATCC 33591 MIC, 175 mM NaCl” value came to 0.89 ± 0.05 µg/mL. Also, in the experiment with N. gonorrhoeae, the “N. gonorrhoeae F 62 (serum-sensitive)” value is reported as 0.5 and the “N. gonorrhoeae FA 19 (serum-resistant)” value was 0.2. Also, in the experiment with E. coli ML-35p, the “E. coli ML-35p MIC, 0 mM NaCl” value is 0.45 ± 0.10 µg/mL and the “E. coli ML-35p MIC, 175 mM NaCl” value amounted to 0.41 ± 0.06 µg/mL. In the experiment on S. aureus 930918-3, the “S. aureus 930918-3 MIC, 0 mM NaCl” value worked out at 0.84 ± 0.14 µg/mL and the “S. aureus 930918-3 MIC, 175 mM NaCl” value amounted to 0.86 ± 0.06 µg/mL. Further, the “B. cepacia ATCC 25416 in underlays” value with B. cepacia ATCC 25416 amounted to 20.2. In addition, in the experiment with P. aeruginosa PA-01, the “P. aeruginosa PA-01 MIC, 0 mM NaCl” value amounted to 0.83 ± 0.05 µg/mL and the “P. aeruginosa PA-01 MIC, 175 mM NaCl” value amounted to 0.82 ± 0.05 µg/mL. For the same substance, in the experiment with E. coli DH-5α, the “E. coli DH-5α MIC, 0 mM NaCl” value was 0.26 ± 0.05 µg/mL and the “E. coli DH-5α MIC, 175 mM NaCl” value was determined as 0.35 ± 0.09 µg/mL. Besides, in the experiment with P. aeruginosa MR 3007, the “P. aeruginosa MR-3007 MIC, 0 mM NaCl” value came out at 0.67 ± 0.12 µg/mL and the “P. aeruginosa MR-3007 MIC, 175 mM NaCl” value turned out to be 0.59 ± 0.05 µg/mL. Further, the “L. monocytogenes in underlays of low” value in the experiment with L. monocytogenes EGD was 2.1.
Take LRRIIRKIIHIIKK-NH2 [Peptide 11]: in the experiment on MRSA ATCC 33591, the “MRSA ATCC 33591 MIC, 0 mM NaCl” value stood at 4.42 ± 1.73 µg/mL and the “MRSA ATCC 33591 MIC, 175 mM NaCl” value is more than 79.1 µg/mL. Moreover, in the experiment on N. gonorrhoeae, the “N. gonorrhoeae F 62 (serum-sensitive)” value was 0.8 and the “N. gonorrhoeae FA 19 (serum-resistant)” value turned out to be 0.9. Further, in the experiment with E. coli ML-35p, the “E. coli ML-35p MIC, 0 mM NaCl” value came to 0.63 ± 0.05 µg/mL and the “E. coli ML-35p MIC, 175 mM NaCl” value worked out at 49.2 ± 15.2 µg/mL. For the same substance, in the experiment on S. aureus 930918-3, the “S. aureus 930918-3 MIC, 0 mM NaCl” value is 1.38 ± 0.21 µg/mL and the “S. aureus 930918-3 MIC, 175 mM NaCl” value is 16.4 ± 5.1 µg/mL. For the same substance, in the experiment with B. cepacia ATCC 25416, the “B. cepacia ATCC 25416 in underlays” value is given as more than 79.1. Moreover, in the experiment with P. aeruginosa PA-01, the “P. aeruginosa PA-01 MIC, 0 mM NaCl” value worked out at 0.96 ± 0.05 µg/mL and the “P. aeruginosa PA-01 MIC, 175 mM NaCl” value was 6.51 ± 1.02 µg/mL. Further, in the experiment on E. coli DH-5α, the “E. coli DH-5α MIC, 0 mM NaCl” value turned out to be 0.85 ± 0.04 µg/mL and the “E. coli DH-5α MIC, 175 mM NaCl” value was 5.92 ± 1.02 µg/mL. In the experiment with P. aeruginosa MR 3007, the “P. aeruginosa MR-3007 MIC, 0 mM NaCl” value came out at 0.92 ± 0.06 µg/mL and the “P. aeruginosa MR-3007 MIC, 175 mM NaCl” value was 20.1 ± 6.9 µg/mL. Further, the “L. monocytogenes in underlays of low” value with L. monocytogenes EGD is 0.7.
In the case of “GLRKRLRKFRNKIKEKLKKIGQKIQGLLPKLAPRTDY [Peptide 18]”, the “MRSA ATCC 33591 MIC, 0 mM NaCl” value in the experiment on MRSA ATCC 33591 amounted to 8.2 µg/mL. Besides, in the experiment with N. gonorrhoeae, the “N. gonorrhoeae F 62 (serum-sensitive)” value came to 0.7 and the “N. gonorrhoeae FA 19 (serum-resistant)” value came out at 0.6. The “E. coli ML-35p MIC, 0 mM NaCl” value in the experiment on E. coli ML-35p is 2.8 µg/mL. The “S. aureus 930918-3 MIC, 0 mM NaCl” value in the experiment with S. aureus 930918-3 was 1.8 µg/mL. Moreover, in the experiment on B. cepacia ATCC 25416, the “B. cepacia ATCC 25416 in underlays” value is more than 79.1. In addition, the “P. aeruginosa PA-01 MIC, 0 mM NaCl” value in the experiment on P. aeruginosa PA-01 is 0.88 µg/mL. In the experiment on E. coli DH-5α, the “E. coli DH-5α MIC, 0 mM NaCl” value stood at 0.84 µg/mL. For the same substance, the “P. aeruginosa MR-3007 MIC, 0 mM NaCl” value with P. aeruginosa MR 3007 was found to be 2.1 µg/mL. Also, in the experiment with L. monocytogenes EGD, the “L. monocytogenes in underlays of low” value came out at 0.6.
Regarding RKRLRKFRNKIKEKLKKIGQKI [Peptide 21], the “MRSA ATCC 33591 MIC, 0 mM NaCl” value in the experiment with MRSA ATCC 33591 came to 8.1 µg/mL. In the experiment with N. gonorrhoeae, the “N. gonorrhoeae F 62 (serum-sensitive)” value stood at 22.0 and the “N. gonorrhoeae FA 19 (serum-resistant)” value is reported as more than 250. The “E. coli ML-35p MIC, 0 mM NaCl” value in the experiment with E. coli ML-35p is 0.2 µg/mL. For the same substance, in the experiment on S. aureus 930918-3, the “S. aureus 930918-3 MIC, 0 mM NaCl” value worked out at 7.9 µg/mL. Further, in the experiment on B. cepacia ATCC 25416, the “B. cepacia ATCC 25416 in underlays” value was more than 250. The “P. aeruginosa MR-3007 MIC, 0 mM NaCl” value in the experiment on P. aeruginosa MR 3007 was 0.2 µg/mL. Moreover, the “L. monocytogenes in underlays of low” value in the experiment with L. monocytogenes EGD was 7.0.
On to KRLRKFRNKIKEKLKKIG [Peptide 20], for which, in the experiment on MRSA ATCC 33591, the “MRSA ATCC 33591 MIC, 0 mM NaCl” value turned out to be 14.9 µg/mL. In the experiment on N. gonorrhoeae, the “N. gonorrhoeae F 62 (serum-sensitive)” value is recorded as more than 250 and the “N. gonorrhoeae FA 19 (serum-resistant)” value was more than 250. The “E. coli ML-35p MIC, 0 mM NaCl” value in the experiment with E. coli ML-35p turned out to be 2.3 µg/mL. For the same substance, the “S. aureus 930918-3 MIC, 0 mM NaCl” value with S. aureus 930918-3 was found to be 9.7 µg/mL. In addition, the “B. cepacia ATCC 25416 in underlays” value in the experiment on B. cepacia ATCC 25416 is reported as more than 250. In the experiment on P. aeruginosa MR 3007, the “P. aeruginosa MR-3007 MIC, 0 mM NaCl” value stood at 2.9 µg/mL. For the same substance, the “L. monocytogenes in underlays of low” value in the experiment on L. monocytogenes EGD is 2.3.
